Usually IC50 stands for the concentration that gives 50% inhibition. A high value points to weaker potency.

From patent US6084072A, “Purified lectin and methods of use” (The Regents of the University of Michigan, priority 1993, dated 2000) come the findings set out here.

Entries after “also recorded” stand apart in the source; their conditions may differ.

One assay addresses amaranthin (Amaranthus caudatus, UniProt Q71QF2). Put plainly: Hapten inhibition of amaranthin/asialo-ovine submaxillary mucin precipitation. Type of assay: binding. The note with it: for Relative Inhibition potency ACA: N-Acetylgalactosamine = 1. The method, then:
Precipitation assays were conducted in 1.5 ml centrifuge tubes by the method of So and Goldstein. Indicated amounts of glycoprotein were added to 80 μg of amaranthin, and the total volume was adjusted to 250 μl with phosphate buffered saline. The tubes were incubated at 37° C. and then kept at 4° C. for 2 days. The precipitates were centrifuged, washed with cold Phosphate buffered saline, dissolved in 0.05 N NaOH and analyzed for protein by the method of Lowery et al. using bovine serum albumin as the standard. Hapten inhibition assays were carried out using 80 μg of amaranthin, 5 μg of asialo-ovine submaxillary mucins, and the indicated sugar concentrations. Inhibition was determined relative to the amount of precipitate formed in the control with no sugar added. All precipitation assays were conducted in duplicate to bring the tolerance within ±5% and the amount of precipitate formed average.

The target of another assay is T1, PNA (Arachis hypogaea, UniProt P02872).
T1 construct: purchased E.Y. Laboratories, San Mateo, Calif; (donated by Dr. A. Chu)
T1 sequence (P02872 24-273): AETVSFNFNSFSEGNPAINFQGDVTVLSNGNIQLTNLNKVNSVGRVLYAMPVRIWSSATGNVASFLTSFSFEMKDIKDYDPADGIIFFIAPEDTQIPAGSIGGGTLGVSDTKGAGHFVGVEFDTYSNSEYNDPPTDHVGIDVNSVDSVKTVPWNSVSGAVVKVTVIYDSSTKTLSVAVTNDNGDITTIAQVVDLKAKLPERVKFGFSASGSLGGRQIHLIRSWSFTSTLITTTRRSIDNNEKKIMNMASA
Put plainly: Hapten inhibition of PNA/asialoglycophorin precipitation. Type of assay: binding. Conditions: Galactose = 1; 40 μg PNA, 6 μg asialoglycophorin. The method, then: Precipitation reactions with PNA were carried out similarly, except that 40 μg of PNA was used. Hapten inhibition studies with PNA used 40 μg of PNA, 6 μg of asialoglycophorin, and the indicated sugar concentrations.

Chain of amaranthin (Q71QF2 entry or part of it): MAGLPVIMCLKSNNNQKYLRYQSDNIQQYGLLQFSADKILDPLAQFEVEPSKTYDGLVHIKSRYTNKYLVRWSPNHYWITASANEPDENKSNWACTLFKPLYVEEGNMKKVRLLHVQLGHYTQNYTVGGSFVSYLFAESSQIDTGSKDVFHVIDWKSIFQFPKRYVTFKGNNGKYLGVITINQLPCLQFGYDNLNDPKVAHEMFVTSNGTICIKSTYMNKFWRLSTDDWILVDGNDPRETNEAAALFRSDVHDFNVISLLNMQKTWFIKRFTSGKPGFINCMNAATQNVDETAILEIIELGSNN

As to `COC(=O)[C@H](CO[C@H]1O[C@H](CO)[C@H](O)[C@H](O)[C@H]1NC(C)=O)NC(=O)OCc1ccccc1` [3-O-(2-N-acetyl-α-D-galactopyranosyl-N-(benzyloxcarbonyl)-L-serinemethyl ester], on amaranthin, the IC50 turned out to be 53 µM and the “Relative Inhibition potency ACA” value is 15.

Regarding `CO[C@H]1[C@@H](O)[C@@H](CO)O[C@@H](O[C@H]2[C@@H](O)[C@@H](CO)O[C@H](OCc3ccccc3)[C@@H]2NC(C)=O)[C@@H]1O` [3-O-Methyl Galβ1,3GalNAcα-O-benzyl], at amaranthin, the IC50 was found to be 2 µM and the “Relative Inhibition potency ACA” value is given as 395. In addition, the “Relative Inhibition potency PNA” value at PNA is less than 10.

In the case of `CC(=O)N[C@H]1[C@@H](OCc2ccccc2)O[C@H](CO)[C@H](O)[C@@H]1O[C@@H]1O[C@H](C)[C@H](O)[C@H](O)[C@H]1O` [D-Fubcβ1,3GalNAcα-O-benzyl], at amaranthin, inhibition was half-maximal at 1.9 µM (IC50); the “inhibition of amaranthin/AOSM precipitation, in words” value is given as “very good inhibitor”; the “Relative Inhibition potency ACA” value amounted to 416. The “Relative Inhibition potency PNA” value on PNA was found to be 11.

Consider `C[C@H]1OC(O)[C@H](O)[C@@H](O)[C@H]1O` (stereo partly drawn) [D-Fucose], for which the “Relative Inhibition potency ACA” value on amaranthin is less than 0.002.

Regarding `CO[C@H]1O[C@H](CO)[C@H](O)[C@H](O[C@@H]2O[C@H](CO)[C@@H](O)[C@H](O)[C@H]2O)[C@H]1NC(C)=O` [Gacβ1,3GalNAcα-O-CH3], on amaranthin, the midpoint of inhibition, the IC50, lay at 36 µM and the “Relative Inhibition potency ACA” value came to 22. Further, on amaranthin (inhibitor of amaranthin), the “times less potent than Galβ1,3GalNAcα-O--CH3” value amounted to 10.

As to `CC(=O)N[C@H]1[C@@H](O[C@H]2[C@@H](O)[C@@H](CO)OC(O)[C@@H]2O)O[C@H](CO)[C@H](O)[C@@H]1O` (stereo partly shown) [GalNAcα1,3Gal], on amaranthin, the midpoint of inhibition, the IC50, lay at 310 µM and the “Relative Inhibition potency ACA” value was determined as 2.5.

`CC(=O)N[C@H]1[C@@H](OC[C@H]2OC(O)[C@H](O)[C@@H](O)[C@H]2O)O[C@H](CO)[C@H](O)[C@@H]1O` (stereo partly shown) [GalNAcα1,6Gal]: at amaranthin, 210 µM corresponded to half-maximal inhibition (IC50) and the “Relative Inhibition potency ACA” value is listed as 3.8.

With `CC(=O)N[C@H]1[C@H](OC[C@H]2OC(O)[C@H](O)[C@@H](O)[C@H]2O)O[C@H](CO)[C@H](O)[C@@H]1O` (stereo partly shown) [GalNAcβ1,6Gal], at amaranthin, the IC50 was 1000 µM and the “Relative Inhibition potency ACA” value is recorded as 0.8.

Regarding `N[C@H]1C(O)O[C@H](CO)[C@H](O)[C@@H]1O` (stereo partly shown) [Galactosamine], at amaranthin, the “inhibition of amaranthin/AOSM precipitation, in words” value is recorded as “very poor inhibitors” and the “Relative Inhibition potency ACA” value is listed as less than 0.002.

As to `OC[C@H]1OC(O)[C@H](O)[C@@H](O)[C@H]1O` (stereo partly shown) [Galactose], at amaranthin, the “inhibition of amaranthin/AOSM precipitation, in words” value is “very poor inhibitors; also recorded: not by galactose” and the “Relative Inhibition potency ACA” value is less than 0.002.

As for `OC[C@H]1O[C@H](OC[C@H]2OC(O)[C@H](O)[C@@H](O)[C@@H]2O)[C@H](O)[C@@H](O)[C@H]1O` (stereo partly shown) [Galα1,6Glc], at amaranthin, the “Relative Inhibition potency ACA” value is less than 0.008.

Turning to `CC(=O)N[C@H]1CO[C@H](CO)[C@H](O)[C@@H]1O[C@@H]1O[C@H](CO)[C@H](O)[C@H](O)[C@H]1O` [Galβ1,3(2-acetamido-2-deoxy-1,5-anhydrogalactitol)], at amaranthin, the midpoint of inhibition, the IC50, lay at 5.8 µM and the “Relative Inhibition potency ACA” value was 136. For the same compound, the “times less potent than Galβ1,3GalNAc” value at amaranthin (inhibitor of amaranthin) is reported as 1.7. Moreover, the “Relative Inhibition potency PNA” value at PNA turned out to be 14.

As for `C=CCO[C@H]1O[C@H](CO)[C@H](O)[C@H](O[C@@H]2O[C@H](CO)[C@H](O)[C@H](O)[C@H]2O)[C@H]1NC(C)=O` [Galβ1,3GalNAcα-O-CH2 CH = CH2], on amaranthin, the IC50 was 2.1 µM and the “Relative Inhibition potency ACA” value was found to be 376. For the same compound, the “fold more potent than the anomeric β-O-allyl glycoside” value on amaranthin (inhibitor of amaranthin) is 16. Further, the “Relative Inhibition potency PNA” value at PNA stood at 38.

At amaranthin, `CO[C@H]1O[C@H](CO)[C@H](O)[C@H](O[C@@H]2O[C@H](CO)[C@H](O)[C@H](O)[C@H]2O)[C@H]1NC(C)=O` [Galβ1,3GalNAcα-O-CH3] yielded an IC50 of 3.1 µM. For the same compound, the “Relative Inhibition potency PNA” value on PNA is listed as 47.

Take `CC(=O)N[C@H]1[C@@H](Oc2ccccc2[N+](=O)[O-])O[C@H](CO)[C@H](O)[C@@H]1O[C@@H]1O[C@H](CO)[C@H](O)[C@H](O)[C@H]1O` [Galβ1,3GalNAcα-O-o-nitrophenyl]: at amaranthin, the IC50 amounted to 2.1 µM and the “Relative Inhibition potency ACA” value is recorded as 376.

For `COC(=O)CCCCCCCCO[C@H]1O[C@H](CO)[C@H](O)[C@H](O[C@@H]2O[C@H](CO)[C@H](O)[C@H](O)[C@H]2O)[C@H]1NC(C)=O` [Galβ1,3GalNAcαO(CH2)8 -CH-CH3], on amaranthin, half-maximal inhibition (IC50) was put at 1.8 µM and the “Relative Inhibition potency ACA” value was found to be 439. For the same compound, the “Relative Inhibition potency PNA” value on PNA is on record as 47.

Consider `C=CCO[C@@H]1O[C@H](CO)[C@H](O)[C@H](O[C@@H]2O[C@H](CO)[C@H](O)[C@H](O)[C@H]2O)[C@H]1NC(C)=O` [Galβ1,3GalNAcβ-O-CH2 -CH = CH2], for which, on amaranthin, half-maximal inhibition (IC50) required 34 µM and the “Relative Inhibition potency ACA” value stood at 23.

Consider `CC(=O)N[C@H]1C(O)O[C@H](CO)[C@@H](O)[C@@H]1O[C@@H]1O[C@H](CO)[C@H](O)[C@H](O)[C@H]1O` (stereo partly shown) [Galβ1,3GlcNAC], for which, at amaranthin, the “inhibition of amaranthin/AOSM precipitation, in words” value is listed as “very poor inhibitor” and the “Relative Inhibition potency ACA” value is listed as less than 0.08.

Consider `C=CCO[C@@H]1O[C@H](CO)[C@@H](O)[C@H](O[C@@H]2O[C@H](CO)[C@H](O)[C@H](O)[C@H]2O)[C@H]1NC(C)=O` [Galβ1,3GlcNAcβ-O-CH2 --CH--CH2], for which, at amaranthin, the “Relative Inhibition potency ACA” value is given as less than 0.08.

On to `CC(=O)N[C@H]1[C@@H](OCc2ccccc2)O[C@H](CF)[C@H](O)[C@@H]1O[C@@H]1O[C@H](CO)[C@H](O)[C@H](O)[C@H]1O` [Galβ1,3[6-F]GalNAcα-O-benzyl], for which, on amaranthin, half-maximal inhibition (IC50) required 1.7 µM; the “inhibition of amaranthin/AOSM precipitation, in words” value was “inhibition is equivalent to Galβ1,3GalNAca-O-benzyl”; the “Relative Inhibition potency ACA” value amounted to 465.

For the compound `OC[C@H]1O[C@@H](O[C@H]2[C@H](O)[C@@H](O)C(O)O[C@@H]2CO)[C@H](O)[C@@H](O)[C@H]1O` (stereo partly shown) [Galβ1,4Glc], on amaranthin, the “Relative Inhibition potency ACA” value is less than 0.01.

As to `CC(=O)N[C@H]1[C@H](O[C@H]2[C@@H](O)[C@@H](CF)O[C@H](OCc3ccccc3)[C@@H]2NC(C)=O)O[C@H](CO)[C@@H](O)[C@@H]1O` [GlcNAcβ1,3[6-F]GalNAcα-O-benzyl], on amaranthin, the “Relative Inhibition potency ACA” value is reported as less than 0.08.

For `OC[C@H]1OC(O)[C@H](O)[C@@H](O)[C@@H]1O` (stereo partly shown) [Glucose], the “Relative Inhibition potency ACA” value at amaranthin is recorded as less than 0.002.

Consider `CO[C@H]1O[C@H](CO)[C@H](O)[C@H](O)[C@H]1NC(=O)c1ccccc1` [Methyl (2-N-benzamido)-α-galactosaminide], for which, on amaranthin, the IC50 was determined as 850 µM and the “Relative Inhibition potency ACA” value was 0.9.

As for `CO[C@H]1O[C@H](CO)[C@H](O)[C@H](O)[C@H]1NC(=O)c1ccc([N+](=O)[O-])cc1` [Methyl (2-N-p-nitrobenzamindo)-α-galactosaminide], on amaranthin, the midpoint of inhibition, the IC50, lay at 140 µM and the “Relative Inhibition potency ACA” value is reported as 5.6.

For `CO[C@H]1O[C@H](CO)[C@H](O)[C@H](O)[C@H]1OC(C)=O` [Methyl (2-O-acetyl)-α-galactoside], on amaranthin, the IC50 was found to be 2140 µM and the “Relative Inhibition potency ACA” value is 0.4. In addition, the “times less potent than GalNAcα-O--CH3” value on amaranthin (inhibitor of amaranthin) came out at 8.6.

Turning to `CO[C@H]1O[C@H](CO)[C@H](O)[C@H](O)[C@H]1OC(=O)c1ccc([N+](=O)[O-])cc1` [Methyl (2-O-p-nitrobenzoate)-α-galactoside], the “Relative Inhibition potency ACA” value on amaranthin was less than 0.1.

As for `CO[C@@H]1C[C@@H](O)[C@@H](O)[C@@H](CO)O1` [Methyl (2-deoxy)-α-galactose], the “Relative Inhibition potency ACA” value on amaranthin was less than 0.08.

On to `CO[C@H]1O[C@H](CO)[C@H](O)[C@H](O)[C@H]1NC(C)=O` [Methyl N-acetyl-α-galactosaminide], for which, at amaranthin, the midpoint of inhibition, the IC50, lay at 250 µM; the “inhibition of amaranthin/AOSM precipitation, in words” value is “best monosaccharide inhibitor”; the “Relative Inhibition potency ACA” value was determined as 3.2.

Turning to `CO[C@@H]1O[C@H](CO)[C@H](O)[C@H](O)[C@H]1NC(C)=O` [Methyl N-acetyl-β-galactosaminide], at amaranthin, half-maximal inhibition (IC50) required 11300 µM and the “Relative Inhibition potency ACA” value amounted to 0.07.

Regarding `COC(=O)CCCCCCCCO[C@H]1O[C@H](CO)[C@H](O)[C@H](O[C@@H]2O[C@H](CO)[C@H](O)[C@H](O[C@]3(C(=O)O)C[C@H](O)[C@@H](NC(C)=O)[C@H]([C@H](O)[C@H](O)CO)O3)[C@H]2O)[C@H]1NC(C)=O` [NeuAcα2,3Galβ1,3GalNAcα-O-(CH2)8 --CO2 CH3], at amaranthin, half-maximal inhibition (IC50) was put at 1.8 µM; the “inhibition of amaranthin/AOSM precipitation, in words” value is reported as “does not decrease inhibitory potency”; the “Relative Inhibition potency ACA” value stood at 439.

In the case of `CC(=O)N[C@H]1[C@@H](Oc2ccc([N+](=O)[O-])cc2)O[C@H](CO)[C@H](O)[C@@H]1O` [p-NitrophenylN-acetyl-α-galactosiminide], on amaranthin, the IC50 amounted to 450 µM and the “Relative Inhibition potency ACA” value is 1.8.

For the compound `CC(=O)N[C@H]1[C@H](Oc2ccc([N+](=O)[O-])cc2)O[C@H](CO)[C@H](O)[C@@H]1O` [p-NitrophenylN-acetyl-β-Zgalactosaminide], the “Relative Inhibition potency ACA” value at amaranthin was less than 0.3.
